System: root-knot nematode (Meloidogyne javanica)
Experiment: Efficacy to control root-knot nematode, pot trial with tomato plants
Type: in vivo
Conditions: tomato cv. Tiny Tim, relative to untreated control
Description: The efficacy of pesticidal formulations in the control of root-knot nematode (Meloidogyne javanica) as a pre-plant soil pesticidal formulation was investigated.
The root-knot nematode colonies were prepared with 1 kg of river sand placed in 100 mm diameter pots. The sand was inoculated with 10,000 eggs of root-knot nematode (M. javanica). The eggs were harvested from the roots of infected tomato plants (Lycopersicon esculentum cv. Tiny Tim) by washing in a 1% bleach solution for 3 minutes, collecting the […] on a 25 μm sieve and rinsing in running tap water for 2 minutes.
The appropriate treatment was applied to each pot in 5 mL of water using five 1 mL injections spaced evenly around the pot. Each dilution of the pesticidal formulation was applied using a pipette so that the tip of the pipette was 20 mm below the soil surface. The pots were allowed to stand for 7 days before planting a three week old tomato plant (c.v. Tiny Tim) in each pot.
Six weeks after planting the tomatoes were harvested. The tops of the plants were removed and dried for 4 days at 70° C. before being weighed. […] The juvenile nematodes were collected on a 25 μm sieve, backwashed and counted using a compound microscope at 40× magnification. […]

**Q.** CNC(=S)[S-].[Na+] [metham sodium] was tested. Which “juvenile root-knot nematodes extracted from the roots” value (six weeks after planting, FIG. 2) did it give?
**A.** significantly fewer

**Q.** What about the “galls on the root system of tomato plants (gall rating)” value (soil inoculated with 10,000 eggs, harvested six weeks after planting, FIG. 1) of the same compound?
**A.** significantly fewer

Reference: patent publication US20090022824A1, “Pesticidal formulations” (Akhil Technologies Pty Ltd, priority 2005, published 2009)
